For series [1] the following is noted: cited from earlier work.
The conditions of series [2]: cited from earlier work. This is another data set of the same source.
Series [3] in a line: Stability studies (shelf life, visible changes). Type of series: physicochemical. As for the experimental part:
The effects of HPBCD on the shelf life stability of each active agent is studied at pre-determined temperatures for 11 weeks. Real time stability is observed at −17° C., 5° C. and 25° C., and accelerated stability is observed at 40° C. For accelerated stability, one day at 40° C. is equivalent to one week, thus the data represents 77 weeks. […] The vials are then placed in a temperature-controlled oven or refrigerator/freezer. The compounds are checked daily and any visible changes are noted.

Series [4] in a line: Phase solubility studies. The settings on record: active with HPBCD; calculated using Eq. (1).
A short description of series [5]: Solubility in water (statements). The class given is physicochemical.
The mark [6] stands for this setting: 5° C., Week 10, visible changes.
Where [7] appears, read: 5° C., Week 11, visible changes.
Setting [8] is: 25° C., Week 1, visible changes.
Setting [9] is: 25° C., Week 2, visible changes.
[10] abbreviates: 25° C., Week 3, visible changes.
The mark [11] stands for this setting: 25° C., Week 4, visible changes.
Where [12] appears, read: 25° C., Week 5, visible changes.
Where [13] appears, read: 25° C., Week 6, visible changes.
[14] abbreviates: 25° C., Week 7, visible changes.
Setting [15] is: 25° C., Week 8, visible changes.
Where [16] appears, read: 25° C., Week 9, visible changes.
The mark [17] stands for this setting: 25° C., Week 10, visible changes.
Where [18] appears, read: 25° C., Week 11, visible changes.
The mark [19] stands for this setting: 40° C. accelerated stability, Week 1, visible changes.
Setting [20] is: 40° C. accelerated stability, Week 2, visible changes.
Where [21] appears, read: 40° C. accelerated stability, Week 3, visible changes.
Where [22] appears, read: 40° C. accelerated stability, Week 4, visible changes.
The mark [23] stands for this setting: 40° C. accelerated stability, Week 5, visible changes.
The mark [24] stands for this setting: 40° C. accelerated stability, Week 6, visible changes.
Setting [25] is: 40° C. accelerated stability, Week 7, visible changes.
The mark [26] stands for this setting: 40° C. accelerated stability, Week 8, visible changes.
[27] abbreviates: 40° C. accelerated stability, Week 9, visible changes.
The mark [28] stands for this setting: 40° C. accelerated stability, Week 10, visible changes.
The mark [29] stands for this setting: 40° C. accelerated stability, Week 11, visible changes.

Read-outs that look alike come from different tables or passages of the source.

For the compound “1,3-diazacyclopenta-2,4-diene [imidazole]”, the “pKa of conjugate acid (imidazolium ion)” value in series [1] is “approximately 7.0”.

In the case of `CC(O)COC[C@H]1O[C@@H]2O[C@H]3[C@H](O)[C@@H](O)[C@@H](O[C@H]4[C@H](O)[C@@H](O)[C@@H](O[C@H]5[C@H](O)[C@@H](O)[C@@H](O[C@H]6[C@H](O)[C@@H](O)[C@@H](O[C@H]7[C@H](O)[C@@H](O)[C@@H](O[C@H]8[C@H](O)[C@@H](O)[C@@H](O[C@H]1[C@H](O)[C@H]2O)O[C@@H]8COCC(C)O)O[C@@H]7COCC(C)O)O[C@@H]6COCC(C)O)O[C@@H]5COCC(C)O)O[C@@H]4COCC(C)O)O[C@@H]3COCC(C)O` (stereo partly drawn) [HPBCD, Hydroxypropyl β-cyclodextrin], the aqueous solubility entry in series [2] is on record as “more than 60 g/100 mL”. Besides, the “Stability of Actives at 5° C.” value is reported as 0 in series [3] (5° C., Week 1, visible changes); 0 in series [3] (5° C., Week 2, visible changes); 0 in series [3] (5° C., Week 3, visible changes); 0 in series [3] (5° C., Week 4, visible changes); 0 in series [3] (5° C., Week 5, visible changes); 0 in series [3] (5° C., Week 6, visible changes). The “Stability of Actives at 5° C.” value is 0 in series [3] (5° C., Week 7, visible changes); 0 in series [3] (5° C., Week 8, visible changes); 0 in series [3] (5° C., Week 9, visible changes); 0 in series [3] (setting [6]); 0 in series [3] (setting [7]). Further, the “Stability of Actives at 25° C.” value in series [3] (setting [8]), in series [3] (setting [9]), in series [3] (setting [10]), in series [3] (setting [11]), in series [3] (setting [12]) and in series [3] (setting [13]) was 0 in each case. The “Stability of Actives at 25° C.” value in series [3] (setting [14]), in series [3] (setting [15]), in series [3] (setting [16]), in series [3] (setting [17]) and in series [3] (setting [18]) was 0 throughout. Also, the “Stability of Actives at 40° C.” value in series [3] (setting [19]), in series [3] (setting [20]), in series [3] (setting [21]), in series [3] (setting [22]), in series [3] (setting [23]) and in series [3] (setting [24]) was 0 in each case. For the same compound, the “Stability of Actives at 40° C.” value in series [3] (setting [25]), in series [3] (setting [26]), in series [3] (setting [27]), in series [3] (setting [28]) and in series [3] (setting [29]) was 0 throughout.

As for `Nc1cc(N2CCCCC2)nc(N)[n+]1[O-]` [Minoxidil], the “Stability of Actives at 5° C.” value was 0 in series [3] (5° C., Week 1, visible changes); 0 in series [3] (5° C., Week 2, visible changes); 0 in series [3] (5° C., Week 3, visible changes); 0 in series [3] (5° C., Week 4, visible changes); 0 in series [3] (5° C., Week 5, visible changes); 0 in series [3] (5° C., Week 6, visible changes). The “Stability of Actives at 5° C.” value in series [3] (5° C., Week 7, visible changes) came to 0; in series [3] (5° C., Week 8, visible changes), 0; in series [3] (5° C., Week 9, visible changes), 0; in series [3] (setting [6]), 0; in series [3] (setting [7]), 0. For the same compound, the “Stability of Actives at 25° C.” value in series [3] (setting [8]), in series [3] (setting [9]), in series [3] (setting [10]), in series [3] (setting [11]), in series [3] (setting [12]) and in series [3] (setting [13]) was 0 in each case. Moreover, the “Stability of Actives at 25° C.” value in series [3] (setting [14]), in series [3] (setting [15]), in series [3] (setting [16]), in series [3] (setting [17]) and in series [3] (setting [18]) was 0 in each case. Besides, the “Stability of Actives at 40° C.” value in series [3] (setting [19]), in series [3] (setting [20]), in series [3] (setting [21]), in series [3] (setting [22]), in series [3] (setting [23]) and in series [3] (setting [24]) was 0 throughout. For the same compound, the “Stability of Actives at 40° C.” value in series [3] (setting [25]), in series [3] (setting [26]), in series [3] (setting [27]), in series [3] (setting [28]) and in series [3] (setting [29]) was 0 in each case.

`NC(=O)c1cccnc1` [Niacinamide]: the “association constant (Kc) for complex formation” value in series [4] is 0.79856 M⁻¹. Also, the “Stability of Actives at 5° C.” value in series [3] (5° C., Week 1, visible changes) is on record as 0. Further, the “Stability of Actives at 25° C.” value in series [3] (setting [8]), in series [3] (setting [9]), in series [3] (setting [10]), in series [3] (setting [11]), in series [3] (setting [12]) and in series [3] (setting [13]) was 0 throughout. Further, the “Stability of Actives at 25° C.” value in series [3] (setting [14]), in series [3] (setting [15]), in series [3] (setting [16]), in series [3] (setting [17]) and in series [3] (setting [18]) was 0 each time. Also, in series [3] (setting [19]), the “Stability of Actives at 40° C.” value came out at 0. Further, the solubility in water result in series [5] was “strong water solubility”.

Regarding `COc1cc(CCC(=O)CC(=O)CCc2ccc(O)c(OC)c2)ccc1O` [Tetrahydrocurcumin], the “Stability of Actives at 5° C.” value in series [3] (1 week), in series [3] (2 week), in series [3] (3 week), in series [3] (4 week), in series [3] (5 week) and in series [3] (6 week) was 0 each time. Moreover, the “Stability of Actives at 5° C.” value in series [3] (7 week), in series [3] (8 week), in series [3] (9 week), in series [3] (10 week) and in series [3] (11 week) was 0 throughout. In addition, the “Stability of Actives at 25° C.” value in series [3] (1 week), in series [3] (2 week), in series [3] (3 week), in series [3] (4 week), in series [3] (5 week) and in series [3] (6 week) was 0 throughout. In addition, the “Stability of Actives at 25° C.” value in series [3] (7 week), in series [3] (8 week), in series [3] (9 week), in series [3] (10 week) and in series [3] (11 week) was 0 in each case. Moreover, the “Stability of Actives at 40° C.” value in series [3] (1 week), in series [3] (2 week), in series [3] (3 week), in series [3] (4 week), in series [3] (5 week) and in series [3] (6 week) was 0 throughout. The “Stability of Actives at 40° C.” value in series [3] (7 week), in series [3] (8 week), in series [3] (9 week), in series [3] (10 week) and in series [3] (11 week) was 0 in each case. Besides, the “Stability of Actives at −17 C.” value in series [3] (1 week), in series [3] (2 weeks), in series [3] (3 weeks), in series [3] (4 weeks), in series [3] (5 week) and in series [3] (6 week) was 0 throughout. In addition, the “Stability of Actives at −17 C.” value in series [3] (7 week), in series [3] (8 week), in series [3] (9 week), in series [3] (10 weeks) and in series [3] (11 weeks) was 0 in each case.

As to `OC[C@H]1O[C@@H]2O[C@H]3[C@H](O)[C@@H](O)[C@@H](O[C@H]4[C@H](O)[C@@H](O)[C@@H](O[C@H]5[C@H](O)[C@@H](O)[C@@H](O[C@H]6[C@H](O)[C@@H](O)[C@@H](O[C@H]7[C@H](O)[C@@H](O)[C@@H](O[C@H]8[C@H](O)[C@@H](O)[C@@H](O[C@H]1[C@H](O)[C@H]2O)O[C@@H]8CO)O[C@@H]7CO)O[C@@H]6CO)O[C@@H]5CO)O[C@@H]4CO)O[C@@H]3CO` [β-Cyclodextrin], the solubility in water result in series [2] (room temperature) is “approximately 19 mg/mL”.

Values taken from patent publication US20200347153A1, “METHODS FOR FORMING INCLUSION COMPLEXES WITH HYDROPHILIC BETA-CYCLODEXTRIN DERIVATIVES AND COMPOSITIONS THEREOF” (priority 2019, published 2020).
